Measured values published in patent US20250264484A1, “METHODS FOR IDENTIFYING AND TREATING DISEASES” (Genzyme Corporation, priority 2022, published 2025).

Legend:
[1] = target: T1, non-lysosomal glucosylceramidase (Homo sapiens, UniProt Q9HCG7); conditions: range given jointly for three glycosidases; read-out: IC50 against non-lysosomal glucosylceramidase; cited from earlier work
T1 sequence (Q9HCG7 1-927): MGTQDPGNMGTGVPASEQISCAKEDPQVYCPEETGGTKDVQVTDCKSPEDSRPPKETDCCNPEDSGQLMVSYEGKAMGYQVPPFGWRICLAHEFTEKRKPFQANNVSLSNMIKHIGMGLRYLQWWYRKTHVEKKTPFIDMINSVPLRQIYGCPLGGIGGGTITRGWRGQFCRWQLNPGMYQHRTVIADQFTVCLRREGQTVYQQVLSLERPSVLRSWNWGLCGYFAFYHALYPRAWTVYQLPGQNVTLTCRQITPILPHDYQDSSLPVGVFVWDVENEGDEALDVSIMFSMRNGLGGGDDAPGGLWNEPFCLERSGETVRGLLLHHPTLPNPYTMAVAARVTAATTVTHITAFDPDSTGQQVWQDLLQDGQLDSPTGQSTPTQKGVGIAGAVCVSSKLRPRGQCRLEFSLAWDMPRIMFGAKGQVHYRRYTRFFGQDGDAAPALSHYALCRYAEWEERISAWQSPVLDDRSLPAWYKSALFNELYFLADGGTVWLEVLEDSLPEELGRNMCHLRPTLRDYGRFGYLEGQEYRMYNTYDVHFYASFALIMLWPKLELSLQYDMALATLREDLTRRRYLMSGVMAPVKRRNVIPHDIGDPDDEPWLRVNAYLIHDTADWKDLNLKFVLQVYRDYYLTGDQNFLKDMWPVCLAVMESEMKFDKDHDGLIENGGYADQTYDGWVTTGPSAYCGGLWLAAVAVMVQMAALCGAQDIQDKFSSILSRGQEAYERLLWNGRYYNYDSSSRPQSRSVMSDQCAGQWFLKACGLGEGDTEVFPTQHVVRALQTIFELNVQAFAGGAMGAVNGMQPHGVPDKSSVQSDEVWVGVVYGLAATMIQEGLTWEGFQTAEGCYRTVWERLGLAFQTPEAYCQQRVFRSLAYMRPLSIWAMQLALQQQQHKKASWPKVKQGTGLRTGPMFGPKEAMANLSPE

[2] = system: SHSY-5Y neuroblastoma cells; experiment: Lipid response of SHSY-5Y neuroblastoma cells to CBE incubation; format: cell-based, human; conditions: 100 μM CBE for 24 hours
Description: In each case, the lyso-GL1 levels without treatment are very low (left-hand bar, in black). Error bars show SD, and data are presented in relative (arbitrary) units, “AU”, which are normalized for cell number.
First, the response of human SHSY-5Y neuroblastoma cells to CBE was studied. Cells were either used without further changes (wild-type) or were modified to reduce or increase Gba activity (knock-down and over-expressed, respectively). The modification was effected by stable transfection with a plasmid expressing an siRNA targeting GBA (KD) or a plasmid constitutively overexpressing GBA (OE). Human SHSY-5Y neuroblastoma cells (Sigma) were incubated with 100 μM CBE (Toronto Research Chemicals) for 24 hours. Enzyme activity and lipid levels were measured at −24 hours (before CBE incubation), and at 0, 24, and 48 hours after CBE removal. […] A marked increase in enzyme activity was observed between the knock-down and wild-type cells, and between the wild-type and over-expressed cells.

[3] = system: lyso-GL1 and GL-1 accumulation; experiment: CBE timecourse of lipid flux in wild-type mouse strains; format: in vivo; conditions: C57BL/6, BALB/cJ and FVB mice after CBE challenge
Description: GSL levels were measured in cortex (FIG. 4A), liver (FIG. 4B), and plasma (FIG. 4C). […] Data are shown as mean±SD.
Three different wild-type mouse strains (C57BL/6J, BALB/cJ, and FVB-Charles River Laboratories or Jackson Labs) were evaluated for GSL accumulation and restoration after CBE challenge. […] The CBE challenge time course was performed in these three different strains, measuring lyso-GL1 and GL-1 accumulation at 24, 48, and 72 hours after administration.

GCase [4] = target: T2, GCase (Homo sapiens, UniProt P04062); conditions: read-out: IC50 against GCase; cited from earlier work
T2 sequence (P04062 40-536): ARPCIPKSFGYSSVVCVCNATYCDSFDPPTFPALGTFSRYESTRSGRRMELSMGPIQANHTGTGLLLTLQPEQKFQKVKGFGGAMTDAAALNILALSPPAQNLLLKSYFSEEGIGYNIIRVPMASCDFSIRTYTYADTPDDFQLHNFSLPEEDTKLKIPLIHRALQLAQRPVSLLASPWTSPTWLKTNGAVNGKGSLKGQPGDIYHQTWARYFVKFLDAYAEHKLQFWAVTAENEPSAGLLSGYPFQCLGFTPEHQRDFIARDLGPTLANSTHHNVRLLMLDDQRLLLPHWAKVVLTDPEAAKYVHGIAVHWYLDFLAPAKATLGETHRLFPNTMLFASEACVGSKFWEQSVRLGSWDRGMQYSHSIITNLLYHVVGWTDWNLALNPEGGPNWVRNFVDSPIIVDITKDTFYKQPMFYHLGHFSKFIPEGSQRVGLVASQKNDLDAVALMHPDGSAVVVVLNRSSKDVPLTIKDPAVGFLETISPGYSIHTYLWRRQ

[5] = system: GL1 and lyso-GL1 accumulation; experiment: CBE timecourse of lipid flux in Gba D409V/D409V, D409V/+ and +/+ mice; format: in vivo; conditions: single intraperitoneal CBE injection
Description: For each plot, the top line (with squares) is the homozygous D409V mice, the middle line (with triangles pointing upwards) is the heterozygous mice, and the bottom line (triangles pointing downwards) is the wild-type mice. N=10 per group. Data are shown as mean±SEM.
It was investigated whether substrate accumulation could allow for discrimination between mice harboring different copy numbers of mutations in GBA1. Three mouse models were investigated: Gba^D409V/D409V, Gba^D409V/+, and Gba^+/+, which are homozygous for a loss of function D409V mutation in GBA1, heterozygous for that mutation, or WT for GBA1, respectively. The GCase substrate, glucosylceramide (GL1) was investigated in addition to glucosylsphingosine (lyso-GL1). Mice were administered a single dose of CBE and sacrificed after 3, 6, 24, 48, or 72 hours. Substrate accumulation and dissipation was measured over time.

α-glucosidases = conditions: range given jointly for three glycosidases; read-out: IC50 against α-glucosidases; cited from earlier work
[6] = system: human peripheral blood mononuclear cells (PBMCs); experiment: CBE challenge in human PBMCs; format: cell-based
Description: PBMCs were obtained from blood samples (Stem Cell Technologies, catalog number 70025, lot number 2105417005, Donor ID CE0006419) using standard procedures. 25,000 cells were added to individual wells of a multi-well plate and allowed to acclimate for 24 hours before they were treated with 100 μM CBE for 24 hours. Culture medium was removed and replaced with fresh medium (without CBE), and lipids were extracted from the cells at time intervals of 0, 2, 4, 8, 16 and 24 hours. GL1 and lyso-GL1 levels were measured, as were levels of phosphatidylcholine (PC).

Lyso-GL1 levels = experiment: CBE dose titration in WT mice: lyso-GL1 accumulation; format: in vivo; conditions: cortex, liver and plasma, 24 hours after CBE
Description: Lyso-GL1 was detected in cortex (FIG. 2A), liver (FIG. 2B), and plasma (FIG. 2C). N=4 per group (8 for untreated and 100 mg/kg plasma). Results for lyso-GL1 are μg/g wet tissue. […] Error bars show SEM.
A dose response to CBE was performed in wild-type (WT) mice (Charles River Laboratories or Jackson Labs). Concentrations between 0.3 mg/kg and 100 mg/kg of CBE were investigated. GCase activity remaining 24 hours after administration of CBE was measured using a 4-methylumbelliferone (4MU) hydrolysis assay. Briefly, cell lysates from different sample types were diluted into 0.1 M sodium acetate buffer, pH 4.5 containing 10 mM of synthetic substrate 4-methylumbelliferyl-β-D-glucopyranoside and incubated at 37° C. for 1 hour. The reaction was terminated by adding 0.5 volume of 1 M glycine buffer, pH 12.5. The fluorescence of the reaction was measured using a Spectramax fluorimeter (Ex365/Em445; Molecular Devices, Sunnyvale, CA, USA). A standard curve was generated using Cerezyme® (imiglucerase).

β-glucuronidase = target: T3, β-glucuronidase (Homo sapiens, UniProt P08236); conditions: range given jointly for three glycosidases; read-out: IC50 against β-glucuronidase; cited from earlier work
T3 sequence (P08236 23-651): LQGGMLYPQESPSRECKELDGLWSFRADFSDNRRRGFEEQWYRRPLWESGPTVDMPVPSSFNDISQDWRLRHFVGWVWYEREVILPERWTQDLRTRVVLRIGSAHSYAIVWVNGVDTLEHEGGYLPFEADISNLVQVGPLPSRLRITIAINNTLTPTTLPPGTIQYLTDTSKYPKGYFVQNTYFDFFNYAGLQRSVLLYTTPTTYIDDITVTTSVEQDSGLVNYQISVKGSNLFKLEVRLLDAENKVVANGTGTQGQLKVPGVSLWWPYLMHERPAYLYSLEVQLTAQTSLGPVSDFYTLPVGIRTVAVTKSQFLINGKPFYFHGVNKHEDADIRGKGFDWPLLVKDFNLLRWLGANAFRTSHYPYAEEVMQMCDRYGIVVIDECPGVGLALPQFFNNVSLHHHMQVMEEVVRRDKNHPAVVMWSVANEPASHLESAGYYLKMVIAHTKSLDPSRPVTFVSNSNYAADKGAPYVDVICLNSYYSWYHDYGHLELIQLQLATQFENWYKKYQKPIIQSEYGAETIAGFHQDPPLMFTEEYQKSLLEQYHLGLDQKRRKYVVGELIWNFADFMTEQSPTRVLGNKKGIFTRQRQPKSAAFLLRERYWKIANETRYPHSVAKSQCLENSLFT

GCase [7] = target: T4, GCase (Mus musculus, UniProt P17439); experiment: CBE dose titration in WT mice: GCase activity (4MU hydrolysis assay); format: in vivo; conditions: cortex and liver, 24 hours, 0.3-100 mg/kg CBE
T4 construct: GCase activity remaining 24 hours after administration of CBE was measured; from tissue; host or cells: cortex and liver of wild-type mice (Charles River Laboratories or Jackson Labs)
T4 sequence (P17439 20-515): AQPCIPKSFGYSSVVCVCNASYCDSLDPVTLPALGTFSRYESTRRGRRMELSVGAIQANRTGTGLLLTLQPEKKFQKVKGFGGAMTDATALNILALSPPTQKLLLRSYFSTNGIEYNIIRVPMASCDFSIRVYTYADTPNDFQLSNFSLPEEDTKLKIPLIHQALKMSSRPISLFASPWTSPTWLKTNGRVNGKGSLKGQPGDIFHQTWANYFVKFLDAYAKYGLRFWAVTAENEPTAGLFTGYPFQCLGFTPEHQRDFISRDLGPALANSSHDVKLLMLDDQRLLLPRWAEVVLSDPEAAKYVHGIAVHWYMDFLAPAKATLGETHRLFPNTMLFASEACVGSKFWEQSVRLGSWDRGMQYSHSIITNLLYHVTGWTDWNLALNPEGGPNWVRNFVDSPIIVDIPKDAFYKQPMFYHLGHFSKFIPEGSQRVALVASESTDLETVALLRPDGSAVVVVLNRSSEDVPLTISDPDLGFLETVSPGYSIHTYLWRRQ
Description: N=4 per group (8 for untreated and 100 mg/kg plasma). […] Error bars show SEM.

[8] = system: SHSY-5Y neuroblastoma cells; conditions: wild-type cells

SMILES | IC50 [1] | GL1 and lyso-GL1 accumulation upon CBE treatment ([2]; KD, WT and OE SHSY-5Y cells) | total GL1 levels after treatment ([2]; wild-type SHSY-5Y cells) | time of peak glycosphingolipid levels [3] | IC50 (GCase [4]) | time of peak substrate accumulation [5] | IC50 (α-glucosidases) | increase of GL1 levels after CBE treatment ([6]; 100 μM CBE for 24 hours) | phosphatidylcholine (PC) levels ([6]; 100 μM CBE for 24 hours) | GL1 levels after CBE treatment ([6]; 100 μM CBE for 24 hours, baseline about 2 ng/ml) | lyso-GL1 levels after CBE treatment ([6]; 100 μM CBE for 24 hours, from nearly undetectable levels) | time for GL1 and lyso-GL1 levels to normalize after treatment ([6]; normalized to PC levels) | Lyso-GL1 levels (Lyso-GL1 levels) | IC50 (β-glucuronidase) | GCase activity remaining after administration of CBE (GCase [7]) | increase of response (dynamic range) on incubation with sodium taurocholate [8]
O[C@H]1[C@H](O)[C@@H](O)[C@@H]2O[C@@H]2[C@@H]1O [CBE, conduritol-β epoxide] | 200 to 2000 µM | inversely proportional to the level of GBA1 expression | No significant difference | 24 h | ~0.3 µM | 24 to 48 h | 200 to 2000 µM | about 6 fold | largely unaffected | about 12 ng/ml | about 0.08 ng/ml | 16 h | increased with increasing CBE dose beyond 30 mg/kg | 200 to 2000 µM | dose-dependent reduction in enzyme activity | 
C[C@H](CCC(=O)NCCS(=O)(=O)O)[C@H]1CC[C@H]2[C@@H]3[C@H](O)C[C@@H]4C[C@H](O)CC[C@]4(C)[C@H]3C[C@H](O)[C@]12C [sodium taurocholate] |  |  |  |  |  |  |  |  |  |  |  |  |  |  |  | ~10 factor
